From patent US7579018B2, “Microbiological control in aqueous systems” (Albemarle Corporation, priority 2000, dated 2009)

Key:
[1] = Storage of tablets at 50° C. for 30 days, titration of active bromine, Example 24; format: physicochemical
Excerpt: 1,3-Dibromo-5,5-dimethylhydantoin was blended with micronized polyethylene wax (MPP-611) such that the blend contained 3 wt % of the wax. A sample of the blend (5 g) was introduced to a die made from Hastelloy® C alloy, and compacted to a pressure of 5000 psi. Three more samples (5 g each) were compacted in the same manner, and each time a single tablet was extracted from the die after the pressure had been released. In each case, before filling the die, its interior surfaces were lightly dusted with micronized polypropylene wax to serve as a lubricant. The tablets were manually broken into two equally-sized pieces. One half of each tablet was crushed into a powder with a mortar and pestle, and the powder was titrated to determine its wt % of active bromine. The other half of each tablet was placed in a sealed glass vial and placed in an oven at 50° C. After 30 days, the samples were removed from the oven, ground up, and titrated to determine its wt % of active bromine. For comparative purposes, a control sample of commercially produced 1,3-dibromo-5,5-dimethylhydantoin having an average particle size of about 64.5μ (containing no micronized polyethylene wax) was subjected to the same operations.
Table 16 lists the results obtained for four samples of 1,3-dibromo-5,5-dimethylhydantoin/3 wt % micronized polyethylene wax blends, along with the control sample containing no additive.

[2] = Iodometric titration of clear saturated stock solutions; format: physicochemical; details: 1 gram powder slurried in 100 mL deionized water, stirred 20 minutes, filtered
Protocol: Stock solutions of DBDMH and of BCDMH were prepared by slurrying 1 gram of the respective powders in 100 mL of deionized water. After stirring for 20 minutes, the insolubles were filtered to yield clear saturated stock solutions of DBDMH and BCDMH, respectively. Iodometric titration of the stock solutions using the potassium iodide-sodium thiosulfate method indicated the DBDMH solution contained 580 mg/L (as total chlorine), and the BCDMH solution contained 1100 mg/L (as total chlorine).

heterotrophic bacteria = test: Cooling tower field trial, Example 2: heterotrophic bacteria plate counts
Excerpt: The effectiveness of DBDMH and of BCDMH in microbiological control in cooling tower water was investigated in comparative tests. The cooling tower consisted of two 500-ton units in a crossflow design. The total system-contained volume was 14,000 gallons, and the tower contained medium efficiency film fill. Water from the tower cooled the coils of two 300-ton air conditioners (chillers). The tower typically operated at a pH of about 9.1 and 4 cycles of concentration. Blowdown was controlled by conductivity. Make-up water consisted of softened city water and which was of good quality. The make-up water was very low in calcium (<10 mg/L) but high in pH (8.7). The alkalinity was 145 mg/L (as CaCO3), and the silica level was 28 mg/L. The tower employed a conventional polyphosphate/molybdate/phosphonate program to provide corrosion and deposit control.
The BCDMH (20 lbs) was introduced to the water using 20-gram, 1-inch tablets charged to a solid halogen feeder (Neptune model BT-40, Neptune Chemical Pump Co., Inc., Lansdale, Pa.). Before each dose, the cooling tower water was sampled and enumerated for heterotrophic bacteria plate counts. Then the tower was slug dosed three times a week with BCDMH. Slug dosing was accomplished by diverting through the feeder containing the tablets a sidestream of the recirculating water for about 1 to 5 hours until a “free chlorine” dose of about 0.5 mg/L (as “free chlorine”) was obtained. The “total chlorine” dose was measured at the same time. After each dose the cooling water was sampled and enumerated for heterotrophic bacteria plate counts. As necessary, the feeder was replenished with more BCDMH tablets.
For example, before the biocide dose the bacteria levels in the bulk water ranged from 10^5 to 10^4 CFUs/mL. After the biocide dose the bacteria levels in the bulk water were reduced to 10^4 to 10^3.
After emptying the feeder of BCDMH tablets, 20 lbs of DBDMH granules was charged into the feeder. Thereupon the same procedure as described above for the BCDMH was carried out except for the fact that is was unnecessary to add any additional DBDMH to the feeder during the 30-day test period. In fact, the total weight of DBDMH consumed during the test was only 7 lbs.

[3] = “free chlorine” (Hach Method 8021) and “total chlorine” (Hach Method 8167) in dosed simulated cooling water, Example 1; format: physicochemical; details: simulated cooling water pH 9.1, 38° C.
Excerpt: The standard tests for determination of “free chlorine” and “total chlorine” are based on classical test procedures devised by Palin in 1974. See A. T. Palin, “Analytical Control of Water Disinfection With Special Reference to Differential DPD Methods For Chlorine, Chlorine Dioxide, Bromine, Iodine and Ozone”, J. Inst. Water Eng., 1974, 28, 139. While there are various modernized versions of the Palin procedures, the version of the tests for “free chlorine” and “total chlorine” used and to be used as the standard in connection with this invention, are fully described in Hach Water Analysis Handbook, 3rd edition, copyright 1997. The procedure for “free chlorine” is identified in that publication as Method 8021 appearing on page 335, whereas the procedure for “total chlorine” is Method 8167 appearing at page 379. Briefly, the “free chlorine” test involves introducing to the halogenated water a powder comprising DPD indicator powder and a buffer. “Free chlorine” present in the water reacts with the DPD indicator to produce a red to pink coloration. The intensity of the coloration depends upon the concentration of “free chlorine” species present in the sample. This intensity is measured by a calorimeter calibrated to transform the intensity reading into a “free chlorine” value in terms of mg/L Cl2. Similarly, the “total chlorine” test also involves use of DPD indicator and buffer. In this case, KI is present with the DPD and buffer whereby the halogen species present, including nitrogen-combined halogen, reacts with KI to yield iodine species which turn the DPD indicator to red/pink. The intensity of this coloration depends upon the sum of the “free chlorine” species and all other halogen species present in the sample. Consequently, this coloration is transformed by the colorimeter into a “total chlorine” value expressed as mg/L Cl2.
DBDAH and BCDMH Test Procedure • 1. To determine the amount of species present in the water which respond to the “free chlorine” and “total chlorine” tests, the water sample should be analyzed within a few minutes of being taken, and preferably immediately upon being taken. • 2. Hach Method 8021 for testing the amount of species present in the water sample which respond to the “free chlorine” test involves use of the Hach Model DR 2010 calorimeter. The stored program number for chlorine determinations is recalled by keying in “80” on the keyboard, followed by setting the absorbance wavelength to 530 nm by rotating the dial on the side of the instrument. Two identical sample cells are filled to the 10 mL mark with the water under investigation. One of the cells is arbitrarily chosen to be the blank. Using the 10 mL cell riser, this is admitted to the sample compartment of the Hach Model DR 2010, and the shield is closed to prevent stray light effects. Then the ZERO key is depressed. After a few seconds, the display registers 0.00 mg/L Cl2. To second cell, the contents of a DPD Free Chlorine Powder Pillow are added. This is shaken for 10-20 seconds to mix, as the development of a pink-red color indicates the presence of species in the water which respond positively to the DPD test reagent. Within one minute of adding the DPD “free chlorine” reagent to the 10 mL of water in the sample cell, the blank cell used to zero the instrument is removed from the cell compartment of the Hach Model DR 2010 and replaced with the test sample to which the DPD “free chlorine” test reagent was added. The light shield is then closed as was done for the blank, and the READ key is depressed. The result, in mg/L Cl2 is shown on the display within a few seconds. This is the “free chlorine” level of the water sample under investigation. • 3. Hach Method 8167 for testing the amount of species present in the water sample which respond to the “total chlorine” test involves use of the Hach Model DR 2010 calorimeter. […]

[4] = dosed to 1 mg/L as total chlorine, Time 0 hr
[5] = Time 0.5 hr, percentage of Time 0 value
[6] = Time 1 hr, percentage of Time 0 value
[7] = Time 1.5 hr, percentage of Time 0 value
[8] = Time 2 hr, percentage of Time 0 value
[9] = Time 3 hr, percentage of Time 0 value
[10] = Time 4 hr, percentage of Time 0 value
[11] = Time 5 hr, percentage of Time 0 value
[12] = Time 6 hr, percentage of Time 0 value

## CC1(C)C(=O)N(Br)C(=O)N1Br [Control, 1,3-dibromo-5,5-dimethylhydantoin]
[1]; sealed glass vial in oven at 50° C., 30 days
  Wt % Active Bromine, After 30 days: 55.2 Wt %
[1]; tablet half crushed and titrated before storage
  Wt % Active Bromine, Initial: 55.3 Wt %

## CC1(C)C(=O)N(Cl)C(=O)N1Br [BCDMH, N,N′-bromochloro-5,5-dimethylhydantoin, reference compound]
[2]
  halogen content of saturated stock solution (as total chlorine): 1100 mg/L
Heterotrophic bacteria; biocide dose 0.5 mg/L “free chlorine”
  average reduction of heterotrophic bacterial levels in the bulk water: 1 order of magnitude
Heterotrophic bacteria; biocide dose 0.5 mg/L “free chlorine”, before dose 10^5 to 10^4 CFUs/mL
  bacteria levels in the bulk water after the biocide dose: 10^4 to 10^3 CFUs/mL
Heterotrophic bacteria; slug dose 3 times/week, 0.5 ppm free Cl2, cooling tower water
  Bacteria reduction: 1.5-2 logs
[3]; [4]
  Free Cl2: 23.1
  Total Cl2: 100
[3]; Time 0 hr
  % hydrolysis to Free Cl2: 23.1%
[3]; Time 0.5 hr
  % hydrolysis to Free Cl2: 24.7%
[3]; [5]
  Free Cl2: 25.6%
  Total Cl2: 104%
[3]; Time 1 hr
  % hydrolysis to Free Cl2: 23.1%
[3]; [6]
  Free Cl2: 23.1%
  Total Cl2: 100%
[3]; Time 1.5 hr
  % hydrolysis to Free Cl2: 19.4%
[3]; [7]
  Free Cl2: 17.9%
  Total Cl2: 92.3%
[3]; Time 2 hr
  % hydrolysis to Free Cl2: 18.8%
[3]; [8]
  Free Cl2: 16.6%
  Total Cl2: 88.5%
[3]; Time 3 hr
  % hydrolysis to Free Cl2: 18.8%
[3]; [9]
  Free Cl2: 16.6%
  Total Cl2: 88.5%
[3]; Time 4 hr
  % hydrolysis to Free Cl2: 38.7%
[3]; [10]
  Free Cl2: 30.7%
  Total Cl2: 79.5%
[3]; Time 5 hr
  % hydrolysis to Free Cl2: 20%
[3]; [11]
  Free Cl2: 15.4%
  Total Cl2: 76.9%
[3]; Time 6 hr
  % hydrolysis to Free Cl2: 14.3%
[3]; [12]
  Free Cl2: 10.2%
  Total Cl2: 71%
